Experimental data: ChEMBL document CHEMBL1201862, “PubChem BioAssay data set” (2004)
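Growth conditions: 96-well plates. Treatment: test compound, 48 hours, 5 concentrations. Analysis: linear interpolation between bracketing concentrations; unreached endpoints set to highest concentration. The concentration for 50% growth inhibition is given as GI50.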 Activity calls are given as the source filed them. Rule as the data show it: active = GI50 up to about 1.1 µM and inactive = higher.

Columns and labels:
Experiment in all cases: DTP human tumour cell line panel, 48 h
[1] = test system: SK-MEL-28
[2] = test system: OVCAR-3
[3] = test system: RXF 393
[4] = test system: OVCAR-5
[5] = test system: HT-29
[6] = test system: COLO 205
[7] = test system: NCI/ADR-RES
[8] = test system: NCI-H460
[9] = test system: OVCAR-8
[10] = test system: Malme-3M
[11] = test system: SF-539
[12] = test system: MOLT-4
[13] = test system: SW-620
[14] = test system: SK-OV-3
[15] = test system: HL-60
[16] = test system: IGROV-1
[17] = test system: A498
[18] = test system: MDA-MB-435
[19] = test system: TK-10
[20] = test system: U-251
[21] = test system: T47D
[22] = test system: K562
[23] = test system: MDA-N
[24] = test system: UACC-257
[25] = test system: NCI-H522
[26] = test system: RPMI-8226
[27] = test system: NCI-H226
[28] = test system: Hs-578T
[29] = test system: HOP-62
[30] = test system: SN12C
[31] = test system: DU-145
[32] = test system: ACHN
[33] = test system: CCRF-CEM
[34] = test system: M14
[35] = test system: SNB-19
[36] = test system: OVCAR-4
[37] = test system: PC-3
[38] = test system: HOP-92
[39] = test system: SNB-75
[40] = test system: HCT-116
[41] = test system: MDA-MB-231
[42] = test system: NCI-H23
[43] = test system: HCC 2998
[44] = test system: EKVX
[45] = test system: SK-MEL-2
[46] = test system: HCT-15
[47] = test system: BT-549
[48] = test system: CAKI-1
[49] = test system: SF-295
[50] = test system: UACC-62
[51] = test system: LOX IMVI
[52] = test system: KM12
[53] = test system: A549
[54] = test system: 786-0
[55] = test system: MCF7
[56] = test system: SF-268
[57] = test system: UO-31
[58] = test system: SK-MEL-5

Measured: GI50

O=CN1CCN(C(=O)c2ccc(Cl)cc2)C1=S
active: [38] 0.714 µM
inactive: [1] 19.1 µM | [2] 15.4 µM | [3] 16.8 µM | [4] 17.4 µM | [5] 17.2 µM | [6] 20.7 µM | [7] 36.5 µM | [8] 21.6 µM | [9] 15.6 µM | [10] 24.5 µM | [11] 26.6 µM | [12] 19.2 µM | [13] 18 µM | [14] 25.1 µM | [15] 23.3 µM | [16] 14.2 µM | [17] 14.8 µM | [18] 14.8 µM | [19] 15 µM | [20] 14.4 µM | [21] 12.8 µM | [22] 12.9 µM | [23] 16.6 µM | [24] 17.5 µM | [25] 14.8 µM | [26] 3.35 µM | [27] 43.5 µM | [28] 49.5 µM | [29] 19.1 µM | [30] 14.7 µM | [31] 15.7 µM | [32] 17.3 µM | [33] 12.8 µM | [34] 14.6 µM | [35] 15.6 µM | [36] 17.3 µM | [37] 15.7 µM | [39] 20 µM | [40] 18 µM | [41] 16.4 µM | [42] 23 µM | [43] 19.8 µM | [44] 15.6 µM | [45] 16.3 µM | [47] 25.4 µM | [48] 14.1 µM | [49] 26.9 µM | [50] 15.9 µM | [51] 11.7 µM | [52] 12.7 µM | [53] 14.9 µM | [54] 6.79 µM | [55] 2.79 µM | [56] 19.2 µM
21.3 µM: [46]

O=C(O)C(O)C(O)C(O)C(O)c1nc2ccccc2s1 (stereo not given)
27.9 µM: [46]
inactive: [1] 20.3 µM | [2] 17.5 µM | [3] 18 µM | [4] 26.9 µM | [5] 21.2 µM | [6] 34.8 µM | [7] 31 µM | [8] 16.3 µM | [9] 18.5 µM | [57] 15.9 µM | [10] 15.5 µM | [11] 17.9 µM | [13] 22.3 µM | [14] 19.1 µM | [15] 17.6 µM | [16] 10.9 µM | [17] 24.6 µM | [18] 17.3 µM | [19] 15.9 µM | [20] 15.7 µM | [21] 19.5 µM | [23] 17.1 µM | [24] 15.8 µM | [25] 12.3 µM | [26] 25.9 µM | [27] 29.8 µM | [28] 16.7 µM | [29] 18.3 µM | [30] 18.7 µM | [31] 16.8 µM | [32] 17.7 µM | [33] 3.53 µM | [34] 17.8 µM | [35] 20.1 µM | [36] 20.3 µM | [37] 15.3 µM | [38] 18.2 µM | [39] 16.9 µM | [40] 16.1 µM | [41] 16.6 µM | [42] 23.2 µM | [58] 25.8 µM | [44] 15.4 µM | [45] 19.2 µM | [47] 26.3 µM | [48] 17.7 µM | [49] 15.6 µM | [50] 15.3 µM | [51] 16.9 µM | [52] 24.7 µM | [53] 18.2 µM | [54] 16.8 µM | [55] 17.1 µM | [56] 14.9 µM

CC(=O)OC1COC(Nc2nc(NCc3ccccc3)n(C)c(=O)c2N=O)C(OC(C)=O)C1OC(C)=O (stereo not given)
inactive: [1] > 10 µM | [2] > 10 µM | [3] > 10 µM | [4] > 10 µM | [5] > 10 µM | [6] > 10 µM | [7] > 10 µM | [8] > 10 µM | [9] > 10 µM | [10] > 10 µM | [11] > 10 µM | [12] > 10 µM | [13] > 10 µM | [14] > 10 µM | [15] > 10 µM | [16] > 10 µM | [17] > 10 µM | [18] > 10 µM | [19] > 10 µM | [20] > 10 µM | [21] > 10 µM | [22] > 10 µM | [23] > 10 µM | [24] > 10 µM | [25] > 10 µM | [26] > 10 µM | [27] > 10 µM | [28] > 10 µM | [29] > 10 µM | [30] > 10 µM | [31] > 10 µM | [32] > 10 µM | [33] > 10 µM | [34] > 10 µM | [35] > 10 µM | [36] > 10 µM | [37] > 10 µM | [39] > 10 µM | [40] > 10 µM | [41] > 10 µM | [42] > 10 µM | [43] > 10 µM | [58] > 10 µM | [44] > 10 µM | [45] > 10 µM | [47] > 10 µM | [48] > 10 µM | [49] > 10 µM | [50] > 10 µM | [51] > 10 µM | [52] > 10 µM | [53] > 10 µM | [54] > 10 µM | [55] > 10 µM | [56] > 10 µM
> 10 µM: [46]

O=C(O)c1cc(C(=O)C(=O)c2cc(C(=O)O)c(O)c3ccccc23)c2ccccc2c1O
> 100 µM: [46]
inactive: [1] > 100 µM | [2] > 100 µM | [3] > 100 µM | [4] > 100 µM | [5] > 100 µM | [6] > 100 µM | [7] > 100 µM | [8] > 100 µM | [9] > 100 µM | [57] > 100 µM | [10] > 100 µM | [11] > 100 µM | [13] > 100 µM | [14] > 100 µM | [16] > 100 µM | [17] > 100 µM | [18] > 100 µM | [19] > 100 µM | [20] > 100 µM | [21] > 100 µM | [22] > 100 µM | [23] > 100 µM | [24] > 100 µM | [25] > 100 µM | [26] > 100 µM | [27] > 100 µM | [28] > 100 µM | [29] > 100 µM | [30] > 100 µM | [31] > 100 µM | [32] > 100 µM | [34] > 100 µM | [35] > 100 µM | [36] > 100 µM | [37] > 100 µM | [38] > 100 µM | [39] > 100 µM | [40] > 100 µM | [41] > 100 µM | [42] > 100 µM | [43] > 100 µM | [58] > 100 µM | [44] > 100 µM | [45] > 100 µM | [47] > 100 µM | [48] > 100 µM | [49] > 100 µM | [50] > 100 µM | [51] > 100 µM | [52] > 100 µM | [53] > 100 µM | [54] > 100 µM | [55] > 100 µM | [56] > 100 µM

COc1cc(C(=O)N(C)N(C)C)cc(OC)c1OC
> 10 µM: [46]
inactive: [1] > 10 µM | [2] > 10 µM | [3] > 10 µM | [4] > 10 µM | [5] > 10 µM | [6] > 10 µM | [7] > 10 µM | [8] > 10 µM | [9] > 10 µM | [57] > 10 µM | [10] > 10 µM | [11] > 10 µM | [12] > 10 µM | [13] > 10 µM | [14] > 10 µM | [15] > 10 µM | [16] > 10 µM | [17] > 10 µM | [18] > 10 µM | [19] > 10 µM | [20] > 10 µM | [21] > 10 µM | [22] > 10 µM | [23] > 10 µM | [24] > 10 µM | [25] > 10 µM | [26] > 10 µM | [27] > 10 µM | [28] > 10 µM | [29] > 10 µM | [30] > 10 µM | [31] > 10 µM | [32] > 10 µM | [33] > 10 µM | [34] > 10 µM | [35] > 10 µM | [36] > 10 µM | [37] > 10 µM | [38] > 10 µM | [39] > 10 µM | [40] > 10 µM | [41] > 10 µM | [42] > 10 µM | [43] > 10 µM | [58] > 10 µM | [44] > 10 µM | [45] > 10 µM | [47] > 10 µM | [48] > 10 µM | [49] > 10 µM | [50] > 10 µM | [51] > 10 µM | [52] > 10 µM | [53] > 10 µM | [54] > 10 µM | [55] > 10 µM | [56] > 10 µM
